Results reported in patent US11453683B1, “KRas G12D inhibitors” (Mirati Therapeutics, Inc., priority 2019, dated 2022).
Structures can show the parent of a compound that is named as a salt.

These molecules were tested on KRas G12D-mediated phosphorylation of ERK (assay: Inhibition of KRas G12D-mediated phosphorylation of ERK in AGS cells). Conditions: Homo sapiens; AGS cells expressing G12D, 3 hours, phospho-ERK normalized to GAPDH.
Format: cell-based
Outline: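 In-cell Western: p-ERK Thr202/Tyr204 signal over GAPDH, as % of DMSO control, with IC50 from a 4-parameter curve. AGS cells seeded 40,000/well for 12-14 h, exposed to compound 3 h at 0.5% DMSO final, then formaldehyde-fixed and methanol-permeabilized.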
`CO[C@@H]1CN2CCC[C@]2(COc2nc(N3C[C@H]4CC[C@@H](C3)N4)c3cnc(-c4cccc5cccc(Cl)c45)c(F)c3n2)C1` [Example 219, 4-((1R,5S)-3,8-diazabicyclo[3.2.1]octan-3-yl)-7-(8-chloronaphthalen-1-yl)-8-fluoro-2-((2-methoxytetrahydro-1H-pyrrolizin-7a(5H)-yl)methoxy)pyrido[4,3-d]pyrimidine bis-hydrochloride] was tested, and the IC50 was 2030 nM.
In the case of `c1ccc2c(-c3cc4nc(OCC56CCCN5CCC6)nc(N5C[C@H]6CC[C@@H](C5)N6)c4cn3)cccc2c1` [Example 233, 4-((1R,5S)-3,8-diazabicyclo[3.2.1]octan-3-yl)-7-(naphthalen-1-yl)-2-((tetrahydro-1H-pyrrolizin-7a(5H)-yl)methoxy)pyrido[4,3-d]pyrimidine], the IC50 is reported as 15600 nM.
Work on `CN(C)c1ccccc1-c1ncc2c(N3C[C@H]4CC[C@@H](C3)N4)nc(OCC34CCCN3CCC4)nc2c1F` [Example 296, 2-(4-((1R,5S)-3,8-diazabicyclo[3.2.1]octan-3-yl)-8-fluoro-2-((hexahydro-1H-pyrrolizin-7a-yl)methoxy)pyrido[4,3-d]pyrimidin-7-yl)-N,N-dimethylaniline] yielded an IC50 of 8470 nM.
Molecule `CN1CCC[C@H]1COc1nc(N2CC3CCC(C2)N3)c2cnc(-c3c(Cl)c(O)cc4ccccc34)c(F)c2n1` [Example 337, 4-(4-(3,8-diazabicyclo[3.2.1]octan-3-yl)-8-fluoro-2-(((S)-1-methylpyrrolidin-2-yl)methoxy)pyrido[4,3-d]pyrimidin-7-yl)-3-chloronaphthalen-2-ol] has an IC50 of 1620 nM.
In the case of `O[C@@H]1C[C@@H]2CN(c3nc(OCCc4ccc(F)cn4)nc4c(F)c(-c5cccc6cccc(Cl)c56)ncc34)C[C@H]1N2` [Example 32, (1R,5R,6R)-3-(7-(8-chloronaphthalen-1-yl)-8-fluoro-2-(2-(5-fluoropyridin-2-yl)ethoxy)pyrido[4,3-d]pyrimidin-4-yl)-3,8-diazabicyclo[3.2.1]octan-6-ol], the IC50 is reported as > 50000 nM.
`CCc1c(F)ccc2cc(O)cc(-c3ncc4c(N5C[C@H]6CC[C@@H](C5)N6)nc(OCC56CCCN5CCC6)nc4c3F)c12` [Example 314, 4-(4-((1R,5S)-3,8-diazabicyclo[3.2.1]octan-3-yl)-8-fluoro-2-((hexahydro-1H-pyrrolizin-7a-yl)methoxy)pyrido[4,3-d]pyrimidin-7-yl)-5-ethyl-6-fluoronaphthalen-2-ol] was tested, and the IC50 was 3.7 nM.
Molecule `COC1(OC)CN2CCCC2(COc2nc(N3C[C@H]4CC[C@@H](C3)N4)c3cnc(-c4cccc5cccc(Cl)c45)c(F)c3n2)C1` (stereo partly drawn) [Example 404, 4-((1R,5S)-3,8-diazabicyclo[3.2.1]octan-3-yl)-7-(8-chloronaphthalen-1-yl)-2-((2,2-dimethoxytetrahydro-1H-pyrrolizin-7a(5H)-yl)methoxy)-8-fluoropyrido[4,3-d]pyrimidine] has an IC50 of 8330 nM.
In the case of `FCCCc1cccc2cccc(-c3ncc4c(N5C[C@H]6CC[C@@H](C5)N6)nc(OCC56CCCN5CCC6)nc4c3F)c12` [Example 255, 4-((1R,5S)-3,8-diazabicyclo[3.2.1]octan-3-yl)-8-fluoro-7-(8-(3-fluoropropyl)naphthalen-1-yl)-2-((hexahydro-1H-pyrrolizin-7a-yl)methoxy)pyrido[4,3-d]pyrimidine], the IC50 is reported as 673 nM.
For `Fc1c(-c2cccc3c2CCC3)ncc2c(N3CC4CCC(C3)N4)nc(OC[C@@]34CCCN3C[C@H](F)C4)nc12` [Example 428], the IC50 was 6960 nM.
With `Cn1cncc1CCOc1nc(N2C[C@H]3CC[C@@H](C2)N3)c2cnc(-c3cc(O)cc4ccccc34)c(F)c2n1` [Example 110, 4-(4-((1R,5S)-3,8-diazabicyclo[3.2.1]octan-3-yl)-8-fluoro-2-(2-(1-methyl-1H-imidazol-5-yl)ethoxy)pyrido[4,3-d]pyrimidin-7-yl)naphthalen-2-ol] the IC50 was > 16700 nM.
Molecule `Fc1c(-c2cccc3cccc(Cl)c23)ncc2c(N3CC4CCC(C3)N4)nc(OC[C@]34CCCN3C[C@H](c3ccccc3)C4)nc12` (stereo in doubt) [Example 221, 4-((1R,5S)-3,8-diazabicyclo[3.2.1]octan-3-yl)-7-(8-chloronaphthalen-1-yl)-8-fluoro-2-((2-phenyltetrahydro-1H-pyrrolizin-7a(5H)-yl)methoxy)pyrido[4,3-d]pyrimidine bis-hydrochloride salt] has an IC50 of 15800 nM.
Work on `CC(C)c1ccc(O)cc1-c1ncc2c(N3C[C@H]4CC[C@@H](C3)N4)nc(OCC34CCCN3CCC4)nc2c1F` [Example 403, 3-(4-((1R,5S)-3,8-diazabicyclo[3.2.1]octan-3-yl)-8-fluoro-2-((tetrahydro-1H-pyrrolizin-7a(5H)-yl)methoxy)pyrido[4,3-d]pyrimidin-7-yl)-4-isopropylphenol] yielded an IC50 of 2880 nM.
Work on `C#Cc1cccc2cc(O)cc(-c3ncc4c(N5C[C@H]6CC[C@@H](C5)N6)ncnc4c3F)c12` [Example 244, 4-(4-((1R,5S)-3,8-diazabicyclo[3.2.1]octan-3-yl)-8-fluoropyrido[4,3-d]pyrimidin-7-yl)-5-ethynylnaphthalen-2-ol] yielded an IC50 of 763 nM.
With `O[C@@H]1C[C@@H]2CN(c3nc(OCCn4ccnc4CF)nc4c(F)c(-c5cccc6cccc(Cl)c56)ncc34)C[C@H]1N2` [Example 168, (1R,5R,6R)-3-(7-(8-chloronaphthalen-1-yl)-8-fluoro-2-(2-(2-(fluoromethyl)-1H-imidazol-1-yl)ethoxy)pyrido[4,3-d]pyrimidin-4-yl)-3,8-diazabicyclo[3.2.1]octan-6-ol] the IC50 was > 16700 nM.
In the case of `C#Cc1cccc2cccc(-c3ncc4c(N5C[C@H]6CC[C@@H](C5)N6)nc(OCC56CCCN5CCC6)nc4c3F)c12` [Example 179, 4-((1R,5S)-3,8-diazabicyclo[3.2.1]octan-3-yl)-7-(8-ethynylnaphthalen-1-yl)-8-fluoro-2-((hexahydro-1H-pyrrolizin-7a-yl)methoxy)pyrido[4,3-d]pyrimidine], the IC50 is reported as 71.2 nM.
`COc1cccc2cccc(-c3ncc4c(N5C[C@H]6CC[C@@H](C5)N6)nc(OCC56CCCN5CCC6)nc4c3F)c12` [Example 236, 4-((1R,5S)-3,8-diazabicyclo[3.2.1]octan-3-yl)-8-fluoro-2-((hexahydro-1H-pyrrolizin-7a-yl)methoxy)-7-(8-methoxynaphthalen-1-yl)pyrido[4,3-d]pyrimidine] was tested, and the IC50 was 2630 nM.
Work on `CC(C)c1c(Cl)cc(O)cc1-c1ncc2c(N3C[C@H]4CC[C@@H](C3)N4)nc(OC[C@@]34CCCN3C[C@H](F)C4)nc2c1F` [Example 291, 3-(4-((1R,5S)-3,8-diazabicyclo[3.2.1]octan-3-yl)-8-fluoro-2-(((2R,7aS)-2-fluorohexahydro-1H-pyrrolizin-7a-yl)methoxy)pyrido[4,3-d]pyrimidin-7-yl)-5-chloro-4-isopropylphenol] yielded an IC50 of 46.5 nM.
`Oc1cc(-c2ncc3c(N4C[C@H]5CC[C@@H](C4)N5)nc(OCC45CCCN4CCC5)nc3c2F)c2c(Cl)cccc2c1` [Example 36, 4-(4-((1R,5S)-3,8-diazabicyclo[3.2.1]octan-3-yl)-8-fluoro-2-((tetrahydro-1H-pyrrolizin-7a(5H)-yl)methoxy)pyrido[4,3-d]pyrimidin-7-yl)-5-chloronaphthalen-2-ol] was tested, and the IC50 was 108 nM.
With `C[C@H]1C[C@@H]1c1c(Cl)cc(O)cc1-c1ncc2c(N3C[C@H]4CC[C@@H](C3)N4)nc(OC[C@@]34CCCN3C[C@H](F)C4)nc2c1F` [Example 451, 3-(4-((1R,5S)-3,8-diazabicyclo[3.2.1]octan-3-yl)-8-fluoro-2-(((2R,7aS)-2-fluorotetrahydro-1H-pyrrolizin-7a(5H)-yl)methoxy)pyrido[4,3-d]pyrimidin-7-yl)-5-chloro-4-((1S,2S)-2-methylcyclopropyl)phenol] the IC50 was 78.3 nM.
`Cn1ccnc1COc1nc(N2C[C@H]3CC[C@@H](C2)N3)c2cnc(-c3cc(O)cc4ccccc34)c(F)c2n1` [Example 104, 4-(4-((1R,5S)-3,8-diazabicyclo[3.2.1]octan-3-yl)-8-fluoro-2-((1-methyl-1H-imidazol-2-yl)methoxy)pyrido[4,3-d]pyrimidin-7-yl)naphthalen-2-ol] was tested, and the IC50 was > 16700 nM.
`Oc1cc(-c2ncc3c(N4C[C@H]5CC[C@@H](C4)N5)nc(OCC45CCCN4CCC5)nc3c2F)c2ccccc2c1` [Example 109, 4-(4-((1R,5S)-3,8-diazabicyclo[3.2.1]octan-3-yl)-8-fluoro-2-((tetrahydro-1H-pyrrolizin-7a(5H)-yl)methoxy)pyrido[4,3-d]pyrimidin-7-yl)naphthalen-2-ol bis(2,2,2-trifluoroacetate)] showed an IC50 of 330 nM.
In the case of `OCCc1cccc2cccc(-c3ncc4c(N5C[C@H]6CC[C@@H](C5)N6)nc(OCC56CCCN5CCC6)nc4c3F)c12` [Example 239, 2-(8-(4-((1R,5S)-3,8-diazabicyclo[3.2.1]octan-3-yl)-8-fluoro-2-((tetrahydro-1H-pyrrolizin-7a(5H)-yl)methoxy)pyrido[4,3-d]pyrimidin-7-yl)naphthalen-1-yl)ethan-1-ol], the IC50 is reported as 2950 nM.
Work on `CO[C@H]1CN2CCC[C@]2(COc2nc(N3CC4CCC(C3)N4)c3cnc(-c4cccc5cccc(Cl)c45)c(F)c3n2)C1` [Example 225, 4-((1R,5S)-3,8-diazabicyclo[3.2.1]octan-3-yl)-7-(8-chloronaphthalen-1-yl)-8-fluoro-2-((2-methoxytetrahydro-1H-pyrrolizin-7a(5H)-yl)methoxy)pyrido[4,3-d]pyrimidine bis-2,2,2-trifluoroacetate] yielded an IC50 of 3060 nM.
Work on `C#Cc1cccc2cc(O)cc(-c3ncc4c(N5C[C@H]6CC[C@@H](C5)N6)nc(OCC56CCCN5CCC6)nc4c3F)c12` [Example 185, 4-(4-((1R,5S)-3,8-diazabicyclo[3.2.1]octan-3-yl)-8-fluoro-2-((hexahydro-1H-pyrrolizin-7a-yl)methoxy)pyrido[4,3-d]pyrimidin-7-yl)-5-ethynylnaphthalen-2-ol] yielded an IC50 of 7.1 nM.
`Oc1cc(-c2ncc3c(N4C[C@H]5CC[C@@H](C4)N5)nc(OC[C@@H]4CCCN4)nc3c2F)c2ccccc2c1` [Example 50, 4-(4-((1R,5S)-3,8-diazabicyclo[3.2.1]octan-3-yl)-8-fluoro-2-(((S)-pyrrolidin-2-yl)methoxy)pyrido[4,3-d]pyrimidin-7-yl)naphthalen-2-ol] showed an IC50 of 15400 nM.
